From US20230057568A1, “COMPOUNDS FOR TREATING FAMILIAL DYSAUTONOMIA” (PTC THERAPEUTICS, INC., priority 2019, published 2023)

Tested on: Elongator complex protein 1 (ELP1, also referred to as IKBKAP)
Experiment: IKBKAP-HTRF Assay
Format: cell-based, human
Details: FD patient-derived fibroblasts GM04589, 48 hours incubation; for EC2x for IKBKAP protein expression (concentration producing two times the amount of IKBKAP protein vs DMSO vehicle control): 7-point concentration curve; for MFI (maximum fold increase in IKBKAP protein abundance relative to the vehicle control): HTRF
Procedure: The assay is used for the quantitative determination of Elongator complex protein 1 (ELP1, also referred to as IKBKAP) concentration in cell lysates using the HTRF® (Homogeneous Time-Resolved Fluorescence) technology. IKBKAP is detected in a sandwich HTRF assay by use of an anti-IKAP antibody labeled with a donor and an anti-IKAP antibody labeled with an acceptor.
Cells were thawed and incubated in DMEM-10% FBS for 72 hours. Cells were trypsinized, counted, and re-suspended to a concentration of 50,000 cells/mL in DMEM-10% FBS. A 199 μL, aliquot of the cell suspensions were plated at 10,000 cells per well in a 96 well microtiter plate and incubated for 3 to 5 hours. […] Test compounds were serially diluted 3.16-fold in 100% DMSO to generate a 7-point concentration curve. A 1 μL aliquot of 200× compound solution was transferred to cell-containing wells, and cells were incubated for 48 hours in a cell culture incubator (37° C., 5% CO2, 100% relative humidity). Triplicate samples were set up for each compound concentration. After 48 hours, the supernatant was removed from the cells and 50 μL of the 1× LB4 lysis buffer, containing protease inhibitors, was added to the cells and incubated with shaking at room temperature for 1 hour. A 36 μL aliquot of this lysate was subsequently transferred to the 384-well plate containing 4 μL of the antibody solution (1:50 dilution of anti IKAP d2 and anti-IKAP K(9+8) in detection buffer). The 384-well plate was then centrifuged for 1 minute to bring the solutions to the bottom of the plate and incubated overnight at 4° C. Fluorescence for each well of the plate at 665 nm and 620 nm was measured was on the EnVision plate reader (Perkin Elmer). The AF for each sample is calculated by: […]
wherein Signal is the normalized fluorescence for each sample well and Blank is the average normalized average fluorescence for the Blank control wells.
The maximum fold increase (MFI) in IKBKAP protein abundance for compounds of Formula (I) or a form thereof relative to the vehicle control are provided in Table 1. MFI was calculated by dividing the AF value for each sample well by the sample AF for the vehicle control wells.
The EC2× for IKBKAP protein expression obtained from the 7-point concentration curve generated for each test compound according to the protocol in Biological Example 1 are also provided in Table 1. The term “EC2× for IKBKAP protein expression” is defined as the concentration of test compound that is effective in producing two times the amount of IKBKAP protein in a FD patient cell compared to the amount produced from the DMSO vehicle control.

Compound	EC2x for IKBKAP protein expression (concentration producing two times the amount of IKBKAP protein vs DMSO vehicle control)	MFI (maximum fold increase in IKBKAP protein abundance relative to the vehicle control)
CC[C@H](N)Cc1sc2c(NCc3ccncc3F)nc(Cl)nc2c1C [Cpd 53, 6-[(2S)-2-aminobutyl]-2-chloro-N-[(3-fluoropyridin-4-yl)methyl]-7-methylthieno[3,2-d]pyrimidin-4-amine]	***** (<0.005 μM)	***** (>4.9)
Cc1nc(NCc2ccco2)c2sc(C[C@H](C)N)c(C)c2n1 [Cpd 15, 6-[(2S)-2-aminopropyl]-N-[(furan-2-yl)methyl]-2,7-dimethylthieno[3,2-d]pyrimidin-4-amine]	**** (between >0.005 μM and ≤0.02 μM)	***** (>4.9)
Cc1csc(CNc2nc(Cl)nc3c(C)c(C[C@H](C)N)sc23)n1 [Cpd 27, 6-[(2S)-2-aminopropyl]-2-chloro-7-methyl-N-[(4-methyl-1,3-thiazol-2-yl)methyl]thieno[3,2-d]pyrimidin-4-amine]	** (between >0.5 μL and ≤1 μM)	*** (between >2.9 and <3.9)
Cc1cnc(CNc2nc(Cl)nc3c(C)c(C[C@H](C)N)sc23)s1 [Cpd 31, 6-[(2S)-2-aminopropyl]-2-chloro-7-methyl-N-[(5-methyl-1,3-thiazol-2-yl)methyl]thieno[3,2-d]pyrimidin-4-amine]	*** (between >0.02 μM and ≤0.5 μM)	*** (between >2.9 and <3.9)
C[C@H](N)c1sc2c(NCc3ccco3)nc(Cl)nc2c1Br [Cpd 46, 6-[(1S)-1-aminoethyl]-7-bromo-2-chloro-N-[(furan-2-yl)methyl]thieno[3,2-d]pyrimidin-4-amine]	* (EC2×>1 μM)	* (MFI<1.9)
Cc1c(C[C@H](C)N)sc2c(NCc3cccnc3F)nc(Cl)nc12 [Cpd 60, 6-[(2S)-2-aminopropyl]-2-chloro-N-[(2-fluoropyridin-3-yl)methyl]-7-methylthieno[3,2-d]pyrimidin-4-amine]	*** (between >0.02 μM and ≤0.5 μM)	*** (between >2.9 and <3.9)
CC[C@H](N)Cc1sc2c(NCc3cccs3)nc(Cl)nc2c1C [Cpd 37, 6-[(2S)-2-aminobutyl]-2-chloro-7-methyl-N-[(thiophen-2-yl)methyl]thieno[3,2-d]pyrimidin-4-amine]	***** (<0.005 μM)	***** (>4.9)
Cc1c(C[C@H](C)N)sc2c(NCc3ccco3)nc(C#N)nc12 [Cpd 21, 6-[(2S)-2-aminopropyl]-4-{[(furan-2-yl)methyl]amino}-7-methylthieno[3,2-d]pyrimidine-2-carbonitrile]	**** (between >0.005 μM and ≤0.02 μM)	***** (>4.9)
CC[C@H](N)c1sc2c(NCc3ccco3)nc(Cl)nc2c1C [Cpd 48, 6-[(1S)-1-aminopropyl]-2-chloro-N-[(furan-2-yl)methyl]-7-methylthieno[3,2-d]pyrimidin-4-amine]	*** (between >0.02 μM and ≤0.5 μM)	** (between >1.9 and <2.9)
Clc1nc(NCc2ccncc2)c2scc(Br)c2n1 [Cpd 43, 7-bromo-2-chloro-N-[(pyridin-4-yl)methyl]thieno[3,2-d]pyrimidin-4-amine]	*** (between >0.02 μM and ≤0.5 μM)	**** (between >3.9 and <4.9)
C[C@H](N)Cc1sc2c(NCc3ccco3)nc(Cl)nc2c1Br [Cpd 40, 6-[(2S)-2-aminopropyl]-7-bromo-2-chloro-N-[(furan-2-yl)methyl]thieno[3,2-d]pyrimidin-4-amine]	***** (<0.005 μM)	***** (>4.9)
C[C@H](N)c1sc2c(NCc3ccco3)nc(-c3ccccc3)nc2c1-c1ccccc1 [Cpd 61, 6-[(1S)-1-aminoethyl]-N-[(furan-2-yl)methyl]-2,7-diphenylthieno[3,2-d]pyrimidin-4-amine]	* (EC2×>1 μM)	* (MFI<1.9)
Cc1c(C[C@H](C)N)sc2c(NCc3ccco3)nc(C(N)=O)nc12 [Cpd 20, 6-[(2S)-2-aminopropyl]-4-{[(furan-2-yl)methyl]amino}-7-methylthieno[3,2-d]pyrimidine-2-carboxamide]	* (EC2×>1 μM)	** (between >1.9 and <2.9)
Cc1c(C[C@H](C)NC2CCC2)sc2c(NCc3ccco3)nc(Cl)nc12 [Cpd 78, 2-chloro-6-[(2S)-2-(cyclobutylamino)propyl]-N-[(furan-2-yl)methyl]-7-methylthieno[3,2-d]pyrimidin-4-amine]	*** (between >0.02 μM and ≤0.5 μM)	*** (between >2.9 and <3.9)
CC[C@H](N)Cc1sc2c(NCc3ncco3)nc(Cl)nc2c1C [Cpd 69, 6-[(2S)-2-aminobutyl]-2-chloro-7-methyl-N-[(1,3-oxazol-2-yl)methyl]thieno[3,2-d]pyrimidin-4-amine]	**** (between >0.005 μM and ≤0.02 μM)	***** (>4.9)
CCc1c(C[C@H](C)N)sc2c(NCc3ccco3)nc(Cl)nc12 [Cpd 77, 6-[(2S)-2-aminopropyl]-2-chloro-7-ethyl-N-[(furan-2-yl)methyl]thieno[3,2-d]pyrimidin-4-amine]	**** (between >0.005 μM and ≤0.02 μM)	***** (>4.9)
Cc1c(C[C@H](C)N)sc2c(NCc3ccncc3F)nc(Cl)nc12 [Cpd 35, 6-[(2S)-2-aminopropyl]-2-chloro-N-[(3-fluoropyridin-4-yl)methyl]-7-methylthieno[3,2-d]pyrimidin-4-amine]	***** (<0.005 μM)	***** (>4.9)
Cc1csc2c(NCc3ccncc3)nc(Cl)nc12 [Cpd 23, 2-chloro-7-methyl-N-[(pyridin-4-yl)methyl]thieno[3,2-d]pyrimidin-4-amine]	*** (between >0.02 μM and ≤0.5 μM)	***** (>4.9)
Cc1c(C[C@H](C)N)sc2c(NCc3ccco3)nc(C(F)(F)F)nc12 [Cpd 26, 6-[(2S)-2-aminopropyl]-N-[(furan-2-yl)methyl]-7-methyl-2-(trifluoromethyl)thieno[3,2-d]pyrimidin-4-amine]	*** (between >0.02 μM and ≤0.5 μM)	**** (between >3.9 and <4.9)
Clc1nc(NCc2ccco2)c2sccc2n1 [Cpd 2, 2-chloro-N-[(furan-2-yl)methyl]thieno[3,2-d]pyrimidin-4-amine]	* (EC2×>1 μM)	*** (between >2.9 and <3.9)
CC[C@H](C)[C@H](N)Cc1cc2nc(Cl)nc(NCc3ccco3)c2s1 [Cpd 6, 6-[(2R,3S)-2-amino-3-methylpentyl]-2-chloro-N-[(furan-2-yl)methyl]thieno[3,2-d]pyrimidin-4-amine]	*** (between >0.02 μM and ≤0.5 μM)	*** (between >2.9 and <3.9)
